Assay results published in ChEMBL document CHEMBL3885881, “DrugMatrix”.

Species on record: Rattus norvegicus
Test: DrugMatrix - Regimen: Daily Repeat
Assay type: toxicity, organism-based, Sprague-Dawley
Design: regimen Daily Repeat, gender Male, age 6-8 weeks
Conditions: in vivo, po, route oral GAVAGE, […]; for ABSOLUTE BASOPHIL / ABSOLUTE EOSINOPHIL / ABSOLUTE LYMPHOCYTE / ABSOLUTE MONOCYTE / ABSOLUTE SEGMENTED NEUTROPHIL / BASOPHIL / EOSINOPHIL / ERYTHROCYTE COUNT / HEMATOCRIT / HEMOGLOBIN / LEUKOCYTE COUNT / LYMPHOCYTE / MEAN CORPUSCULAR HEMOGLOBIN / MEAN CORPUSCULAR HEMOGLOBIN CONCENTRATION / MEAN CORPUSCULAR VOLUME / MONOCYTE / NEUTROPHIL / NUCLEATED RED BLOOD CELLS / PLATELET COUNT: tissue Blood; for ALANINE AMINOTRANSFERASE / ALBUMIN / ALKALINE PHOSPHATASE / ASPARTATE AMINOTRANSFERASE / BLOOD UREA NITROGEN / CARBON DIOXIDE / CHLORIDE / CHOLESTEROL / CREATINE PHOSPHOKINASE / CREATININE / GLUCOSE / LACTATE DEHYDROGENASE / LIPASE / PHOSPHORUS / POTASSIUM / SODIUM / TOTAL BILIRUBIN / TOTAL PROTEIN / URIC ACID: tissue Plasma
[1] = 0 mg/kg, 72 h, dose level Control, time 3 day
[2] = 0 mg/kg, 120 h, dose level Control, time 5 day
[3] = 280 mg/kg, 72 h, dose level High, time 3 day

CC/C(=C(/CC)c1ccc(O)cc1)c1ccc(O)cc1 [DIETHYLSTILBESTROL]
ABSOLUTE BASOPHIL [1]: 0 CELLS/uL | ABSOLUTE EOSINOPHIL [1]: 14 CELLS/uL | ABSOLUTE LYMPHOCYTE [1]: 11144.67 CELLS/uL | ABSOLUTE MONOCYTE [1]: 22.5 CELLS/uL | ABSOLUTE SEGMENTED NEUTROPHIL [1]: 535.5 CELLS/uL | BASOPHIL [1]: 0% | EOSINOPHIL [1]: 0.17% | ERYTHROCYTE COUNT [1]: 5.08 x10E6/uL | HEMATOCRIT [1]: 32.32% | HEMOGLOBIN [1]: 12.87 G/DL | LEUKOCYTE COUNT [1]: 11.72 x10E3/uL | LYMPHOCYTE [1]: 94.67% | MEAN CORPUSCULAR HEMOGLOBIN [1]: 25.37 pg | MEAN CORPUSCULAR HEMOGLOBIN CONCENTRATION [1]: 39.85 G/DL | MEAN CORPUSCULAR VOLUME [1]: 63.58 fL | MONOCYTE [1]: 0.17% | NEUTROPHIL [1]: 5% | NUCLEATED RED BLOOD CELLS [1]: 0 /100WBC | PLATELET COUNT [1]: 1084 x10E3/uL | ALANINE AMINOTRANSFERASE [1]: 67.5 u/L | ALBUMIN [1]: 4.02 G/DL | ALKALINE PHOSPHATASE [1]: 374.17 u/L | ASPARTATE AMINOTRANSFERASE [1]: 83.5 u/L | BLOOD UREA NITROGEN [1]: 14.5 mg/dL | CARBON DIOXIDE [1]: 30 mmol/L | CHLORIDE [1]: 100.5 MEQ/L | CHOLESTEROL [1]: 71.33 mg/dL | CREATINE PHOSPHOKINASE [1]: 268.33 u/L | CREATININE [1]: 0.16 mg/dL | GLUCOSE [1]: 170.5 mg/dL | LACTATE DEHYDROGENASE [1]: 81.17 u/L | LIPASE [1]: 16.67 u/L | PHOSPHORUS [1]: 10.07 mg/dL | POTASSIUM [1]: 5.03 MEQ/L | SODIUM [1]: 142.92 MEQ/L | TOTAL BILIRUBIN [1]: 0.17 mg/dL | TOTAL PROTEIN [1]: 5.63 G/DL | URIC ACID [1]: 0.5 mg/dL | ABSOLUTE BASOPHIL [2]: 0 CELLS/uL | ABSOLUTE EOSINOPHIL [2]: 37.5 CELLS/uL | ABSOLUTE LYMPHOCYTE [2]: 8049.5 CELLS/uL | ABSOLUTE MONOCYTE [2]: 82.83 CELLS/uL | ABSOLUTE SEGMENTED NEUTROPHIL [2]: 646.83 CELLS/uL | BASOPHIL [2]: 0% | EOSINOPHIL [2]: 0.5% | ERYTHROCYTE COUNT [2]: 5.36 x10E6/uL | HEMATOCRIT [2]: 33.9% | HEMOGLOBIN [2]: 13.02 G/DL | LEUKOCYTE COUNT [2]: 8.82 x10E3/uL | LYMPHOCYTE [2]: 90.17% | MEAN CORPUSCULAR HEMOGLOBIN [2]: 24.32 pg | MEAN CORPUSCULAR HEMOGLOBIN CONCENTRATION [2]: 38.42 G/DL | MEAN CORPUSCULAR VOLUME [2]: 63.32 fL | MONOCYTE [2]: 1.17% | NEUTROPHIL [2]: 8.17% | NUCLEATED RED BLOOD CELLS [2]: 0.17 /100WBC | PLATELET COUNT [2]: 1231.5 x10E3/uL | ALANINE AMINOTRANSFERASE [2]: 62 u/L | ALBUMIN [2]: 3.97 G/DL | ALKALINE PHOSPHATASE [2]: 303.67 u/L | ASPARTATE AMINOTRANSFERASE [2]: 84.5 u/L | BLOOD UREA NITROGEN [2]: 14.83 mg/dL | CARBON DIOXIDE [2]: 31.83 mmol/L | CHLORIDE [2]: 97 MEQ/L | CHOLESTEROL [2]: 68.83 mg/dL | CREATINE PHOSPHOKINASE [2]: 411.33 u/L | CREATININE [2]: 0.16 mg/dL | GLUCOSE [2]: 170.17 mg/dL | LACTATE DEHYDROGENASE [2]: 88.5 u/L | LIPASE [2]: 9.5 u/L | PHOSPHORUS [2]: 9.98 mg/dL | POTASSIUM [2]: 5.72 MEQ/L | SODIUM [2]: 141.62 MEQ/L | TOTAL BILIRUBIN [2]: 0.1 mg/dL | TOTAL PROTEIN [2]: 5.67 G/DL | URIC ACID [2]: 0.52 mg/dL | ABSOLUTE BASOPHIL [3]: 0 CELLS/uL | ABSOLUTE EOSINOPHIL [3]: 42 CELLS/uL | ABSOLUTE LYMPHOCYTE [3]: 6341.67 CELLS/uL | ABSOLUTE MONOCYTE [3]: 46.67 CELLS/uL | ABSOLUTE SEGMENTED NEUTROPHIL [3]: 836.33 CELLS/uL | BASOPHIL [3]: 0% | EOSINOPHIL [3]: 0.67% | ERYTHROCYTE COUNT [3]: 5.06 x10E6/uL | HEMATOCRIT [3]: 31.5% | HEMOGLOBIN [3]: 12.2 G/DL | LEUKOCYTE COUNT [3]: 7.27 x10E3/uL | LYMPHOCYTE [3]: 87% | MEAN CORPUSCULAR HEMOGLOBIN [3]: 24.13 pg | MEAN CORPUSCULAR HEMOGLOBIN CONCENTRATION [3]: 38.77 G/DL | MEAN CORPUSCULAR VOLUME [3]: 62.27 fL | MONOCYTE [3]: 0.67% | NEUTROPHIL [3]: 11.67% | NUCLEATED RED BLOOD CELLS [3]: 0 /100WBC | PLATELET COUNT [3]: 1040.67 x10E3/uL | ALANINE AMINOTRANSFERASE [3]: 64 u/L | ALBUMIN [3]: 3.57 G/DL | ALKALINE PHOSPHATASE [3]: 625.67 u/L | ASPARTATE AMINOTRANSFERASE [3]: 73 u/L | BLOOD UREA NITROGEN [3]: 16 mg/dL | CARBON DIOXIDE [3]: 23 mmol/L | CHLORIDE [3]: 107.33 MEQ/L | CHOLESTEROL [3]: 31.33 mg/dL | CREATINE PHOSPHOKINASE [3]: 341 u/L | CREATININE [3]: 0.17 mg/dL | GLUCOSE [3]: 156.67 mg/dL | LACTATE DEHYDROGENASE [3]: 103.33 u/L | LIPASE [3]: 8 u/L | PHOSPHORUS [3]: 9 mg/dL | POTASSIUM [3]: 5.01 MEQ/L | SODIUM [3]: 147.7 MEQ/L | TOTAL BILIRUBIN [3]: 0.27 mg/dL | TOTAL PROTEIN [3]: 5.5 G/DL | URIC ACID [3]: 0.53 mg/dL
